Literature values as cited in patent US20060014828A1 (priority 2004, published 2006).
Where a name gives a salt, the structure may show the parent alone.

| Solubility in alcohol | Solubility in ether | SMILES | Solubility in water | Solubility in organic solvents such as ethanol, ether and chloroform |
| --- | --- | --- | --- | --- |
| slightly soluble | very slightly soluble | NNc1nncc2ccccc12 [Hydralazine hydrochloride] | soluble |  |
|  |  | O=[N+]([O-])O[C@H]1CO[C@H]2[C@@H]1OC[C@H]2O[N+](=O)[O-] [isosorbide dinitrate, 1,4,3,6-dianhydro-D-glucitol-2,5-dinitrate] | sparingly soluble | freely soluble |
